Data published in US10253060B2, “Terpenoid derivatives” (Daiichi Sankyo Company, Limited, priority 2013, dated 2019).

Experiments:
ARPE-19 cells = experiment: Cytoprotective action: suppression of t-BHP-induced decrease in number of live ARPE-19 cells; format: cell-based, human; details: 300 μM t-BHP; for Number of live cells (percentage): no t-BHP/no compound = 100%, mean ± SD, 3 wells
Protocol: The peroxide tert-butyl hydroperoxide (t-BHP) is known to cause oxidative stress-dependent cell injury (Chem Biol Interact 2009; 181: 366- and Food Chem Toxicol 2011; 49: 2081-).
The test compound was terpenoid derivative B of the present invention obtained in Example 1 and CDDO-Me as Comparative Example.
ARPE-19 cells were cultured (5% CO2, 37° C.) using a DMEM/F12 (Life Technologies Japan Ltd., catalog No. 11330-032) mixed medium containing 10% inactivated FBS. The medium contained 100 units/mL (final concentration) penicillin and 100 μg/mL (final concentration) streptomycin.
The ARPE-19 cells were seeded at 10000 cells/well in a 96-well plate. The amount of the medium was 100 μL. Approximately 6 hours later, the medium was replaced with a medium containing terpenoid derivative B of the present invention obtained in Example 1 or CDDO-Me. After culture for approximately 16 hours, the number of live ARPE-19 cells was measured (Cell Counting Kit-8 (catalog No. CK01) manufactured by Dojindo Laboratories was used). Then, the medium was replaced with medium containing 300 μM t-BHP (manufactured by Sigma-Aldrich Corp., catalog No. 46665) and further containing terpenoid derivative B of the present invention obtained in Example 1 or CDDO-Me. Approximately 6 hours after the addition of t-BHP, the number of live ARPE-19 cells was measured.
The number of live cells in medium containing neither t-BHP nor the test compound was defined as 100%. The number of live cells in medium containing 300 μM t-BHP and each concentration of the test compound was indicated by percentage. Each group consisted of 3 wells and was indicated as a mean and standard deviation.

Nqo1 gene = experiment: Effect of inducing Nrf2 target gene (in vivo): Nqo1 gene expression in mouse kidney after oral administration; parameters: species or system C57 Black 6 mouse; details: for Nqo1 gene expression level: solvent group defined as 1, mean ± SD, 6 mice; for induction of the Nqo1 gene (in words): oral, derivative B at a dose of 1 mg/kg
Protocol: The Nqo1 gene was used as the Nrf2 target gene.
Respective suspensions of terpenoid derivative B of the present invention obtained in Example 1 and CDDO-Me were prepared using 0.5 w/v % methylcellulose solution 400 cP (Wako Pure Chemical Industries, Ltd., catalog No. 133-14255) as a solvent. Each suspension was orally administered once a day for 12 consecutive days at a dose of 1, 3, or 10 mg/kg with administration volume of 10 mL/kg to each C57 Black 6 mouse (Charles River Laboratories Japan, Inc., male, 8 weeks old at the time of receipt, 10 weeks old at the start of the experiment). On the next day of the final administration, the mouse was euthanized, and the kidney was sampled. From the sampled kidney, mRNA was collected using an extraction kit (manufactured by Qiagen N.V., RNeasy Mini Kit, catalog No. 74106). From the obtained mRNA, cDNA was prepared using a cDNA synthesis kit (manufactured by GE Healthcare Life Sciences, First-Strand cDNA Synthesis Kit). The obtained cDNA was amplified using a reagent (manufactured by Applied Biosystems, Inc., TaqMan(R) Gene Expression Master Mix (catalog No. 4369016)) and a probe, and subjected to real-time quantitative PCR (Real-time PCR HT7900 manufactured by Applied Biosystems, Inc. was used). […] Each group consisted of 6 mice and was indicated as a mean and standard deviation.

[1] = system: oxygen-induced retinopathy in rat; experiment: Inhibitory effect on oxygen-induced retinopathy in rat (in vivo); parameters: species or system SD rat; details: for Score of pathological condition of retina: rat newborns, oxygen load present, seven times, mean ± SD
Protocol: SD rat newborns (Charles River Laboratories Japan, Inc., pregnant rats were received) were used in the experiment. From the ages of 1 day to 12 days, the newborns were raised under approximately 80% oxygen with the mother rats. The newborns were raised under the atmosphere from the age of 13 days. A suspension of the terpenoid derivative B was prepared using a 0.5 w/v % methylcellulose solution 400 cP (Wako Pure Chemical Industries, Ltd., catalog No. 133-14255) as a solvent. The suspension was orally administered once a day from the ages of 11 days to 17 days, a total of seven times, at a dose of 0.03, 0.1, or 0.3 mpk with administration volume of 10 mL/kg. On the next day of the final […], the newborn rats were euthanized, and the retina was sampled. The pathological condition of the retina was scored according to the literature (Invest Ophthalmol Vis Sci 2000; 41: 887-). Each group consisted of 14 to 30 eyes and was indicated as a mean and standard deviation.

[2] = 1 mg/kg oral once a day for 12 days
[3] = 3 mg/kg oral once a day for 12 days
[4] = 10 mg/kg oral once a day for 12 days

SMILES	suppression of the decrease in the number of live cells caused by t-BHP (in words) (ARPE-19 cells)	Number of live cells (percentage) (ARPE-19 cells; 0.03 nM test compound) [%]	Number of live cells (percentage) (ARPE-19 cells; 0.3 nM test compound) [%]	Number of live cells (percentage) (ARPE-19 cells; 3 nM test compound) [%]	Number of live cells (percentage) (ARPE-19 cells; 30 nM test compound) [%]	Number of live cells (percentage) (ARPE-19 cells; 300 nM test compound) [%]	Nqo1 gene expression level (Nqo1 gene; [2])	Nqo1 gene expression level (Nqo1 gene; [3])	Nqo1 gene expression level (Nqo1 gene; [4])	induction of the Nqo1 gene (in words) (Nqo1 gene)	Score of pathological condition of retina ([1]; 0.03 mg/kg oral once a day)	Score of pathological condition of retina ([1]; 0.1 mg/kg oral once a day)	Score of pathological condition of retina ([1]; 0.3 mg/kg oral once a day)	effect on score of the pathological condition of the retina (in words) ([1]; rat oxygen-induced retinopathy, oral 0.03 to 0.3 mg/kg)
COC(=O)[C@]12CCC(C)(C)C[C@H]1[C@H]1C(=O)C=C3[C@@]4(C)C=C(C#N)C(=O)C(C)(C)[C@@H]4CC[C@@]3(C)[C@]1(C)CC2 [CDDO-Me, methyl 2-cyano-3,12-dioxooleana-1,9-dien-28-oate, reference compound]	did not completely suppress the decrease in the number of live cells	61.8 ± 2.0	56.7 ± 1.2	74.3 ± 1.4	84.7 ± 4.8	76.1 ± 2.8	1.0 ± 0.0	1.0 ± 0.1	1.0 ± 0.1	not confirmed to induce the Nqo1 gene				
COC(=O)[C@@]12CC[C@]3(C)[C@H](C(=O)C=C4[C@@]5(C)[C@H]6O[C@@]6(C#N)C(=O)C(C)(C)[C@@H]5CC[C@]43C)[C@@H]1CC(C)(C)[C@@H](O)C2 [terpenoid derivative B]		90.3 ± 3.9	99.0 ± 10.0	119.7 ± 5.7	114.3 ± 9.5	111.2 ± 3.8	1.2 ± 0.1	1.8 ± 0.2	2.3 ± 0.2	confirmed to induce the Nqo1 gene	3.93 ± 0.79	3.54 ± 0.48	2.57 ± 0.35	suppressed the score of the pathological condition of the retina in a dose-dependent manner
